Results from patent US20230085307A1, “PYRIDAZINONE COMPOUND AND HERBICIDE” (NISSAN CHEMICAL CORPORATION, priority 2019, published 2023).

How the values were obtained:
[1] = test system: late watergrass; assay: Test Example 1: herbicidal activity, application before weed generation under submerged conditions (Table 16, symbol A); format: in vivo, late watergrass (Echinochloa oryzicola); conditions: 320 g/ha applied herbicide
How it was run: (§1)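 Alluvial soil was flooded to 4 cm depth, weed seeds were sown mixed and 2.5-leaf rice seedlings were transplanted. On sowing day, the compound's emulsion, diluted in water to a set dose, was applied to the water surface. Plants grew at 25–30 °C and were scored 0–5 after three weeks.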

[2] = test system: Japanese bulrush; assay: Test Example 1: herbicidal activity, application before weed generation under submerged conditions (Table 16, symbol B); format: in vivo, Japanese bulrush (Schoenoplectus juncoides); conditions: 320 g/ha applied herbicide
How it was run: as §1

[3] = test system: oval-leafed pondweed; assay: Test Example 1: herbicidal activity, application before weed generation under submerged conditions (Table 16, symbol C); format: in vivo, oval-leafed pondweed (Monochoria vaginalis); conditions: 320 g/ha applied herbicide
How it was run: as §1

[4] = test system: barnyard grass; assay: Test Example 3: herbicidal effect by foliage application, Wagner pot (Table 18, symbol H); format: in vivo, barnyard grass (Echinochloa crus-galli); conditions: amount of applied herbicide 320 g/ha
How it was run: (§2)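 Plants were sown in alluvial soil held under 0.1–0.5 cm standing water and grown 14 days in a greenhouse at 25–30 °C. An emulsifiable formulation, water-diluted to the set dose, was then sprayed onto the foliage, and effects were scored three weeks later using previously defined criteria.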

[5] = test system: Chinese sprangletop; assay: Test Example 3: herbicidal effect by foliage application, Wagner pot (Table 18, symbol D); format: in vivo, chinese sprangletop (Leptochloa chinensis); conditions: amount of applied herbicide 320 g/ha
How it was run: as §2

[6] = test system: rice flat sedge; assay: Test Example 3: herbicidal effect by foliage application, Wagner pot (Table 18, symbol E); format: in vivo, rice flat sedge (Cyperus iria); conditions: amount of applied herbicide 320 g/ha
How it was run: as §2

[7] = test system: southern crabgrass; assay: Test Example 4: herbicidal effect by soil treatment (Table 19, symbol F); format: in vivo, southern crabgrass (Digitaria ciliaris); conditions: amount of applied herbicide 320 g/ha
How it was run: (§3)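 Herbicidal effect was rated 3 weeks after treatment, using the scoring criteria of an earlier test. The compound, formulated as an emulsion and diluted in water to a set herbicide amount, had been sprayed uniformly on soil over freshly sown seeds. Growth took place in a greenhouse at 25° C. to 30° C.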

[8] = test system: green foxtail; assay: Test Example 4: herbicidal effect by soil treatment (Table 19, symbol G); format: in vivo, green foxtail (Setaria viridis); conditions: amount of applied herbicide 320 g/ha
How it was run: as §3

[9] = test system: barnyard grass; assay: Test Example 4: herbicidal effect by soil treatment (Table 19, symbol H); format: in vivo, barnyard grass (Echinochloa crus-galli); conditions: amount of applied herbicide 320 g/ha
How it was run: as §3

[10] = test system: wild oat; assay: Test Example 4: herbicidal effect by soil treatment (Table 19, symbol I); format: in vivo, wild oat (Avena fatua); conditions: amount of applied herbicide 320 g/ha
How it was run: as §3

[11] = test system: blackgrass; assay: Test Example 4: herbicidal effect by soil treatment (Table 19, symbol J); format: in vivo, blackgrass (Alopecurus myosuroides); conditions: amount of applied herbicide 320 g/ha
How it was run: as §3

[12] = test system: Italian ryegrass; assay: Test Example 4: herbicidal effect by soil treatment (Table 19, symbol K); format: in vivo, Italian ryegrass (Lolium multiflorum); conditions: amount of applied herbicide 320 g/ha
How it was run: as §3

[13] = test system: windgrass; assay: Test Example 4: herbicidal effect by soil treatment (Table 19, symbol L); format: in vivo, windgrass (Apera spica-venti); conditions: amount of applied herbicide 320 g/ha
How it was run: as §3

[14] = test system: velvetleaf; assay: Test Example 4: herbicidal effect by soil treatment (Table 19, symbol M); format: in vivo, velvetleaf (Abutilon theophrasti); conditions: amount of applied herbicide 320 g/ha
How it was run: as §3

[15] = test system: redroot pigweed; assay: Test Example 4: herbicidal effect by soil treatment (Table 19, symbol N); format: in vivo, redroot pigweed (Amaranthus retroflexus); conditions: amount of applied herbicide 320 g/ha
How it was run: as §3

[16] = test system: lambsquarters; assay: Test Example 4: herbicidal effect by soil treatment (Table 19, symbol O); format: in vivo, lambsquarters (Chenopodium album); conditions: amount of applied herbicide 320 g/ha
How it was run: as §3

[17] = test system: chickweed; assay: Test Example 4: herbicidal effect by soil treatment (Table 19, symbol P); format: in vivo, common chickweed (Stellaria media); conditions: amount of applied herbicide 320 g/ha
How it was run: as §3

[18] = test system: persian speedwell; assay: Test Example 4: herbicidal effect by soil treatment (Table 19, symbol R); format: in vivo, Persian speedwell (Veronica persica); conditions: amount of applied herbicide 320 g/ha
How it was run: as §3

[19] = test system: southern crabgrass; assay: Test Example 5: herbicidal effect by foliage application, plastic box (Table 20, symbol F); format: in vivo, southern crabgrass (Digitaria ciliaris); conditions: foliage application, 320 g/ha, evaluated three weeks after application
How it was run: (§4)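 Foliar spray test: emulsion formulation diluted in water to a set application rate, sprayed onto 14-day-old plants raised in diluvial soil at 25° C to 30° C under glass. Both herbicidal effect and crop effect rated visually three weeks later.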

[20] = test system: green foxtail; assay: Test Example 5: herbicidal effect by foliage application, plastic box (Table 20, symbol G); format: in vivo, green foxtail (Setaria viridis); conditions: foliage application, 320 g/ha, evaluated three weeks after application
How it was run: as §4

[21] = test system: barnyard grass; assay: Test Example 5: herbicidal effect by foliage application, plastic box (Table 20, symbol H); format: in vivo, barnyard grass (Echinochloa crus-galli); conditions: foliage application, 320 g/ha, evaluated three weeks after application
How it was run: as §4

[22] = test system: wild oat; assay: Test Example 5: herbicidal effect by foliage application, plastic box (Table 20, symbol I); format: in vivo, wild oat (Avena fatua); conditions: foliage application, 320 g/ha, evaluated three weeks after application
How it was run: as §4

[23] = test system: blackgrass; assay: Test Example 5: herbicidal effect by foliage application, plastic box (Table 20, symbol J); format: in vivo, blackgrass (Alopecurus myosuroides); conditions: foliage application, 320 g/ha, evaluated three weeks after application
How it was run: as §4

[24] = test system: Italian ryegrass; assay: Test Example 5: herbicidal effect by foliage application, plastic box (Table 20, symbol K); format: in vivo, Italian ryegrass (Lolium multiflorum); conditions: foliage application, 320 g/ha, evaluated three weeks after application
How it was run: as §4

[25] = test system: windgrass; assay: Test Example 5: herbicidal effect by foliage application, plastic box (Table 20, symbol L); format: in vivo, windgrass (Apera spica-venti); conditions: foliage application, 320 g/ha, evaluated three weeks after application
How it was run: as §4

[26] = test system: velvetleaf; assay: Test Example 5: herbicidal effect by foliage application, plastic box (Table 20, symbol M); format: in vivo, velvetleaf (Abutilon theophrasti); conditions: foliage application, 320 g/ha, evaluated three weeks after application
How it was run: as §4

[27] = test system: redroot pigweed; assay: Test Example 5: herbicidal effect by foliage application, plastic box (Table 20, symbol N); format: in vivo, redroot pigweed (Amaranthus retroflexus); conditions: foliage application, 320 g/ha, evaluated three weeks after application
How it was run: as §4

[28] = test system: lambsquarters; assay: Test Example 5: herbicidal effect by foliage application, plastic box (Table 20, symbol O); format: in vivo, lambsquarters (Chenopodium album); conditions: foliage application, 320 g/ha, evaluated three weeks after application
How it was run: as §4

[29] = test system: chickweed; assay: Test Example 5: herbicidal effect by foliage application, plastic box (Table 20, symbol P); format: in vivo, common chickweed (Stellaria media); conditions: foliage application, 320 g/ha, evaluated three weeks after application
How it was run: as §4

[30] = test system: persian speedwell; assay: Test Example 5: herbicidal effect by foliage application, plastic box (Table 20, symbol R); format: in vivo, Persian speedwell (Veronica persica); conditions: foliage application, 320 g/ha, evaluated three weeks after application
How it was run: as §4

Row | SMILES | Herbicidal effect on A: late watergrass (grade 0-5) [1] | Herbicidal effect on B: Japanese bulrush (grade 0-5) [2] | Herbicidal effect on C: oval-leafed pondweed (grade 0-5) [3] | herbicidal effect on H: barnyard grass [4] | herbicidal effect on D: Chinese sprangletop [5] | herbicidal effect on E: rice flat sedge [6] | herbicidal effect on F: southern crabgrass (criteria 0-5) [19] | herbicidal effect on G: green foxtail (criteria 0-5) [20] | herbicidal effect on H: barnyard grass (criteria 0-5) [21] | herbicidal effect on I: wild oat (criteria 0-5) [22] | herbicidal effect on J: blackgrass (criteria 0-5) [23] | herbicidal effect on K: Italian ryegrass (criteria 0-5) [24] | herbicidal effect on L: windgrass (criteria 0-5) [25] | herbicidal effect on M: velvetleaf (criteria 0-5) [26] | herbicidal effect on N: redroot pigweed (criteria 0-5) [27] | herbicidal effect on O: lambsquarters (criteria 0-5) [28] | herbicidal effect on P: chickweed (criteria 0-5) [29] | herbicidal effect on R: persian speedwell (criteria 0-5) [30] | other results
1 | CCCOc1cccc(-c2sc3ccc(F)cc3c2-c2c(O)c(C)nn(C)c2=O)c1 [2-213] | 3 (Herbicidal rate of 40% or more and less than 70%) | 0 (Herbicidal rate of 5% or less (almost no effect)) | 0 (Herbicidal rate of 5% or less (almost no effect)) | 4 (Herbicidal rate of 70% or more and less than 90%) | 3 (Herbicidal rate of 40% or more and less than 70%) | 3 (Herbicidal rate of 40% or more and less than 70%) | 5 (Herbicidal rate of 90% or more (almost completely withered)) | 4 (Herbicidal rate of 70% or more and less than 90%) | 3 (Herbicidal rate of 40% or more and less than 70%) | 0 (Herbicidal rate of 5% or less (almost no effect)) | 3 (Herbicidal rate of 40% or more and less than 70%) | 4 (Herbicidal rate of 70% or more and less than 90%) | 4 (Herbicidal rate of 70% or more and less than 90%) | 1 (Herbicidal rate of 5% or more and less than 20%) | 5 (Herbicidal rate of 90% or more (almost completely withered)) | 4 (Herbicidal rate of 70% or more and less than 90%) | 5 (Herbicidal rate of 90% or more (almost completely withered)) | 5 (Herbicidal rate of 90% or more (almost completely withered)) | F: southern crabgrass, herbicidal effect rating [7]: 5 (Herbicidal rate of 90% or more (almost completely withered)); G: green foxtail, herbicidal effect rating [8]: 4 (Herbicidal rate of 70% or more and less than 90%); H: barnyard grass, herbicidal effect rating [9]: 3 (Herbicidal rate of 40% or more and less than 70%); I: wild oat, herbicidal effect rating [10]: 0 (Herbicidal rate of 5% or less (almost no effect)); J: blackgrass, herbicidal effect rating [11]: 0 (Herbicidal rate of 5% or less (almost no effect)); K: Italian ryegrass, herbicidal effect rating [12]: 4 (Herbicidal rate of 70% or more and less than 90%); L: windgrass, herbicidal effect rating [13]: 0 (Herbicidal rate of 5% or less (almost no effect)); M: velvetleaf, herbicidal effect rating [14]: 0 (Herbicidal rate of 5% or less (almost no effect)); N: redroot pigweed, herbicidal effect rating [15]: 5 (Herbicidal rate of 90% or more (almost completely withered)); O: lambsquarters, herbicidal effect rating [16]: 1 (Herbicidal rate of 5% or more and less than 20%); P: chickweed, herbicidal effect rating [17]: 3 (Herbicidal rate of 40% or more and less than 70%); R: persian speedwell, herbicidal effect rating [18]: 5 (Herbicidal rate of 90% or more (almost completely withered))
2 | CCCCCCOc1cccc(-c2sc3ccc(F)cc3c2-c2c(O)c(C)nn(C)c2=O)c1 [2-226] | 2 (Herbicidal rate of 20% or more and less than 40%) | 0 (Herbicidal rate of 5% or less (almost no effect)) | 0 (Herbicidal rate of 5% or less (almost no effect)) | 4 (Herbicidal rate of 70% or more and less than 90%) | 3 (Herbicidal rate of 40% or more and less than 70%) | 3 (Herbicidal rate of 40% or more and less than 70%) | 0 (Herbicidal rate of 5% or less (almost no effect)) | 0 (Herbicidal rate of 5% or less (almost no effect)) | 0 (Herbicidal rate of 5% or less (almost no effect)) | 0 (Herbicidal rate of 5% or less (almost no effect)) | 0 (Herbicidal rate of 5% or less (almost no effect)) | 0 (Herbicidal rate of 5% or less (almost no effect)) | 5 (Herbicidal rate of 90% or more (almost completely withered)) | 4 (Herbicidal rate of 70% or more and less than 90%) | 5 (Herbicidal rate of 90% or more (almost completely withered)) | 4 (Herbicidal rate of 70% or more and less than 90%) | 4 (Herbicidal rate of 70% or more and less than 90%) | 0 (Herbicidal rate of 5% or less (almost no effect)) | herbicidal effect on F: southern crabgrass [7]: 0 (Herbicidal rate of 5% or less (almost no effect)); herbicidal effect on G: green foxtail [8]: 0 (Herbicidal rate of 5% or less (almost no effect)); herbicidal effect on H: barnyard grass [9]: 0 (Herbicidal rate of 5% or less (almost no effect)); herbicidal effect on I: wild oat [10]: 0 (Herbicidal rate of 5% or less (almost no effect)); herbicidal effect on J: blackgrass [11]: 0 (Herbicidal rate of 5% or less (almost no effect)); herbicidal effect on K: Italian ryegrass [12]: 0 (Herbicidal rate of 5% or less (almost no effect)); herbicidal effect on L: windgrass [13]: 0 (Herbicidal rate of 5% or less (almost no effect)); herbicidal effect on M: velvetleaf [14]: 0 (Herbicidal rate of 5% or less (almost no effect)); herbicidal effect on N: redroot pigweed [15]: 3 (Herbicidal rate of 40% or more and less than 70%); herbicidal effect on O: lambsquarters [16]: 0 (Herbicidal rate of 5% or less (almost no effect)); herbicidal effect on P: chickweed [17]: 0 (Herbicidal rate of 5% or less (almost no effect)); herbicidal effect on R: persian speedwell [18]: 0 (Herbicidal rate of 5% or less (almost no effect))
